Test results published in US9133163B2, “Dihydropyrazole GPR40 modulators” (Bristol-Myers Squibb Company, priority 2012, dated 2015).

These compounds were tested against hGPR40 (Homo sapiens, UniProt O14842) (assay: FDSS-based intracellular calcium assay). Conditions: intracellular Ca2+ response, cells expressing GPR40.
Chain of hGPR40 (O14842 whole entry): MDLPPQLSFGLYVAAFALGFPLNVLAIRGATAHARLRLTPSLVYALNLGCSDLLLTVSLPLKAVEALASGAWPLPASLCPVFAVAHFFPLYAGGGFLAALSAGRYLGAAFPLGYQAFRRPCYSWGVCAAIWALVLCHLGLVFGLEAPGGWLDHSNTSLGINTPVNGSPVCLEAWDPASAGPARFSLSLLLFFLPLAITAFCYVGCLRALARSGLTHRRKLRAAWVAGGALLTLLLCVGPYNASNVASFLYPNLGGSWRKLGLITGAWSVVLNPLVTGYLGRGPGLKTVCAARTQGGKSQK
Type: cell-based
Parameters: 3xFLAG; expressed in transfected cells
Experimental: FDSS-Based Intracellular Calcium Assay
Compounds are dissolved in DMSO and diluted to desired concentrations with assay buffer and added to the cells as 3× solution (20 μL per well). Run fluorescence/luminescence reader FDSS (Hamamatsu) to read intracellular Ca^2+ response.
In the case of `Cc1ccc(Cl)c(N2CCC(Oc3ccc(N4N=C(C(F)(F)F)[C@@H](C)[C@@H]4CC(=O)O)cc3)CC2)c1` [Example 60, 2-((4S,5S)-1-(4-((1-(2-Chloro-5-methylphenyl)piperidin-4-yl)oxy)phenyl)-4-methyl-3-(trifluoromethyl)-4,5-dihydro-1H-pyrazol-5-yl)acetic acid], the EC50 is reported as 364 nM.
With `COc1cc(Cl)cc(N2CCC(Oc3ccc(N4N=C(C(F)(F)F)[C@@H](C)[C@@H]4CC(=O)O)cc3)CC2)n1` [Example 78, 2-((4S,5S)-1-(4-((1-(4-Chloro-6-methoxypyridin-2-yl)piperidin-4-yl)oxy)phenyl)-4-methyl-3-(trifluoromethyl)-4,5-dihydro-1H-pyrazol-5-yl)acetic acid] the EC50 was 1990 nM.
`CCOc1cc(F)c(F)c(N2CCC(Oc3ccc(N4N=C(C(F)(F)F)[C@@H](C)[C@@H]4CC(=O)O)cc3)C(C)C2)c1` (single isomer, unassigned) [Example 10 (Isomer 1)] gave an EC50 of 1200 nM.
With `COc1cc(N2CC[C@@H](Oc3ccc(N4N=C(C(F)(F)F)[C@@H](C)[C@@H]4CC(=O)O)c(Br)c3)[C@H](C)C2)c(Cl)cn1` [Example A3, 2-((4S,5S)-1-(2-Bromo-4-(((3R,4R)-1-(5-chloro-2-methoxypyridin-4-yl)-3-methylpiperidin-4-yl)oxy)phenyl)-4-methyl-3-(trifluoromethyl)-4,5-dihydro-1H-pyrazol-5-yl)acetic acid] the EC50 was 844 nM.
`CCOc1ccc(F)c(N2CCC(Oc3ccc(N4N=C(C(F)(F)F)[C@@H](C)[C@@H]4CC(=O)O)cc3)C(C(C)C)C2)c1` (single isomer, unassigned) [Example 26 (Isomer 1)] showed an EC50 of 1900 nM.
`COC(=O)c1ccc(C2=NN(c3ccc(OC4CCN(c5cc(OC)ccc5F)CC4)cc3)[C@@H](CC(=O)O)[C@@H]2C)cc1` [Example 92, 2-((4S,5S)-1-(4-((1-(2-Fluoro-5-methoxyphenyl)piperidin-4-yl)oxy)phenyl)-3-(4-(methoxycarbonyl)phenyl)-4-methyl-4,5-dihydro-1H-pyrazol-5-yl)acetic acid] was tested, and the EC50 was 139 nM.
In the case of `COc1ccc(F)c(N2CCC(Oc3ccc(N4N=C(C(F)(F)F)[C@@H](C)[C@@H]4CC(=O)O)cc3)C(F)C2)c1` (single isomer, unassigned) [Example 57 (Isomer 2)], the EC50 is reported as 119 nM.
Compound `COc1ccc(F)c(N2CCC(Oc3ccc(N4N=C(c5ccc(C#N)cc5)[C@@H](C)[C@@H]4CC(=O)O)cc3)CC2)c1` [Example 91, 2-((4S,5S)-3-(4-Cyanophenyl)-1-(4-((1-(2-fluoro-5-methoxyphenyl)piperidin-4-yl)oxy)phenyl)-4-methyl-4,5-dihydro-1H-pyrazol-5-yl)acetic acid] has an EC50 of 62 nM.
Compound `CCC1C(C(F)(F)F)=NN(c2ccc(OC3CCN(c4cc(OC)ncc4Cl)CC3C)cc2)C1CC(=O)O` (single isomer, unassigned) [Example 86, Isomer 1, 2-(1-(4-((1-(5-Chloro-2-methoxypyridin-4-yl)-3-methylpiperidin-4-yl)oxy)phenyl)-4-ethyl-3-(trifluoromethyl)-4,5-dihydro-1H-pyrazol-5-yl)acetic acid] has an EC50 of 73 nM.
`CCOc1cc(N2CC[C@@H](Oc3ccc(N4N=C(C(F)(F)F)[C@@H](C)[C@@H]4CC(=O)O)cc3)[C@H](C)C2)c(F)cn1` [Example 85, 2-((4S,5S)-1-(4-(((3R,4R)-1-(2-Ethoxy-5-fluoropyridin-4-yl)-3-methylpiperidin-4-yl)oxy)phenyl)-4-methyl-3-(trifluoromethyl)-4,5-dihydro-1H-pyrazol-5-yl)acetic acid] was tested, and the EC50 was 277 nM.
Work on `CCOc1ccc(F)c(N2CCC(Oc3ccc(N4N=C(C(F)(F)F)[C@@H](C)[C@@H]4CC(=O)O)cc3)C(C(C)C)C2)c1` (single isomer, unassigned) [Example 26 (Isomer 2)] yielded an EC50 of 82 nM.
`COc1ccc(C#N)c(N2CCC(Oc3ccc(N4N=C(C(F)(F)F)[C@@H](C)[C@@H]4CC(=O)O)cc3)CC2)c1` [Example 21, 2-((4S,5S)-1-(4-((1-(2-Cyano-5-methoxyphenyl)piperidin-4-yl)oxy)phenyl)-4-methyl-3-(trifluoromethyl)-4,5-dihydro-1H-pyrazol-5-yl)acetic acid] was tested, and the EC50 was 680 nM.
Compound `C[C@@H]1C(C(F)(F)F)=NN(c2ccc(OC3CCN(c4cc(Cl)ccc4Cl)CC3)cc2)[C@H]1CC(=O)O` [Example 35, 2-((4S,5S)-1-(4-((1-(2,5-Dichlorophenyl)piperidin-4-yl)oxy)phenyl)-4-methyl-3-(trifluoromethyl)-4,5-dihydro-1H-pyrazol-5-yl)acetic acid] has an EC50 of 254 nM.
`C[C@@H]1C(C(F)(F)F)=NN(c2ccc(OC3CCN(c4cccc(F)c4)CC3)cc2)[C@H]1CC(=O)O` [Example 48, 2-((4S,5S)-1-(4-((1-(3-Fluorophenyl)piperidin-4-yl)oxy)phenyl)-4-methyl-3-(trifluoromethyl)-4,5-dihydro-1H-pyrazol-5-yl)acetic acid] was tested, and the EC50 was 2270 nM.
For `COc1ccc(F)c(N2CCC(Oc3ccc(N4N=C(C(F)(F)F)[C@@H](C)[C@@H]4CC(=O)O)cc3)C(F)C2)c1` (single isomer, unassigned) [Example 57 (Isomer 1)], the EC50 was 292 nM.
`Cc1cccc(C)c1N1CCC(Oc2ccc(N3N=C(C(F)(F)F)[C@@H](C)[C@@H]3CC(=O)O)cc2)CC1` [Example 44, 2-((4S,5S)-1-(4-((1-(2,6-Dimethylphenyl)piperidin-4-yl)oxy)phenyl)-4-methyl-3-(trifluoromethyl)-4,5-dihydro-1H-pyrazol-5-yl)acetic acid] was tested, and the EC50 was 1340 nM.
In the case of `COc1ccc(C)c(N2CCC(Oc3ccc(N4N=C(C(F)(F)F)[C@@H](C)[C@@H]4CC(=O)O)cc3)CC2)c1` [Example A2, 2-((4S,5S)-1-(4-(1-(5-Methoxy-2-methylphenyl)piperidin-4-yloxy)phenyl)-4-methyl-3-(trifluoromethyl)-4,5-dihydro-1H-pyrazol-5-yl)acetic acid], the EC50 is reported as 161 nM.
For `COc1ccc(Cl)c(N2CCC(Oc3ccc(N4N=C(C(F)(F)F)[C@@H](C)[C@@H]4CC(=O)O)cc3)CC2)n1` [Example 76, 2-((4S,5S)-1-(4-((1-(3-Chloro-6-methoxypyridin-2-yl)piperidin-4-yl)oxy)phenyl)-4-methyl-3-(trifluoromethyl)-4,5-dihydro-1H-pyrazol-5-yl)acetic acid], the EC50 was 649 nM.
For `CCOc1ccc(F)c(N2CCC(Oc3ccc(N4N=C(C(F)(F)F)[C@@H](C)[C@@H]4CC(=O)O)cc3)CC2)c1` [Example 32, 2-((4S,5S)-1-(4-((1-(5-Ethoxy-2-fluorophenyl)piperidin-4-yl)oxy)phenyl)-4-methyl-3-(trifluoromethyl)-4,5-dihydro-1H-pyrazol-5-yl)acetic acid], the EC50 was 217 nM.
For `COc1cc(N2CC[C@@H](Oc3ccc(N4N=C(C(F)(F)F)[C@@H](C)[C@@H]4CC(=O)O)cc3Br)[C@H](C)C2)c(Cl)cn1` [Example A4, 2-((4S,5S)-1-(3-Bromo-4-(((3R,4R)-1-(5-chloro-2-methoxypyridin-4-yl)-3-methylpiperidin-4-yl)oxy)phenyl)-4-methyl-3-(trifluoromethyl)-4,5-dihydro-1H-pyrazol-5-yl)acetic acid], the EC50 was 45 nM.
Compound `COc1ccc(F)c(N2CCC(Oc3ccc(N4N=C(C(F)(F)F)[C@@H](CC5CC5)[C@@H]4CC(=O)O)cc3)CC2)c1` (single isomer, unassigned) [Example 90, Isomer 1] has an EC50 of 1630 nM.
`C[C@@H]1C(C(F)(F)F)=NN(c2ccc(OC3CCN(c4ccccc4)CC3)cc2)[C@H]1CC(=O)O` [Example 72, 2-((4S,5S)-4-Methyl-1-(4-((1-phenylpiperidin-4-yl)oxy)phenyl)-3-(trifluoromethyl)-4,5-dihydro-1H-pyrazol-5-yl)acetic acid] gave an EC50 of 1930 nM.
With `COc1cc(N2CCC(Oc3ccc(N4N=C(C(F)(F)F)[C@@H](C)[C@@H]4CC(=O)O)cc3)CC2)ccn1` [Example 47, 2-((4S,5S)-1-(4-((1-(2-Methoxypyridin-4-yl)piperidin-4-yl)oxy)phenyl)-4-methyl-3-(trifluoromethyl)-4,5-dihydro-1H-pyrazol-5-yl)acetic acid] the EC50 was 1910 nM.
In the case of `COc1cc(N2CCC(Oc3ccc(N4N=C(C(F)(F)F)[C@@H](C)[C@@H]4CC(=O)O)cc3)C(F)C2)c(Cl)cn1` (single isomer, unassigned) [Example A1, Isomer 1], the EC50 is reported as 184 nM.
Compound `C[C@@H]1C(C(F)(F)F)=NN(c2ccc(OC3CCN(c4cc(O)ccc4F)CC3)cc2)[C@H]1CC(=O)O` [Example 102, 2-((4S,5S)-1-(4-((1-(2-Fluoro-5-hydroxyphenyl)piperidin-4-yl)oxy)phenyl)-4-methyl-3-(trifluoromethyl)-4,5-dihydro-1H-pyrazol-5-yl)acetic acid] has an EC50 of 190 nM.
Compound `Cc1ccc(C)c(N2CCC(Oc3ccc(N4N=C(C(F)(F)F)[C@@H](C)[C@@H]4CC(=O)O)cc3)CC2)c1` [Example 43, 2-((4S,5S)-1-(4-((1-(2,5-Dimethylphenyl)piperidin-4-yl)oxy)phenyl)-4-methyl-3-(trifluoromethyl)-4,5-dihydro-1H-pyrazol-5-yl)acetic acid] has an EC50 of 1070 nM.
For `CCOc1ccc(F)c(N2CCC(Oc3ccc(N4N=C(c5ccc(C#N)cc5F)[C@@H](C)[C@@H]4CC(=O)O)cc3)CC2)c1` [Example 94, 2-((4S,5S)-3-(4-Cyano-2-fluorophenyl)-1-(4-((1-(5-ethoxy-2-fluorophenyl)piperidin-4-yl)oxy)phenyl)-4-methyl-4,5-dihydro-1H-pyrazol-5-yl)acetic acid], the EC50 was 59 nM.
For `COc1ccc(N2CCC(Oc3ccc(N4N=C(C(F)(F)F)[C@@H](C)[C@@H]4CC(=O)O)cc3)CC2)cc1F` [Example 52, 2-((4S,5S)-1-(4-((1-(3-Fluoro-4-methoxyphenyl)piperidin-4-yl)oxy)phenyl)-4-methyl-3-(trifluoromethyl)-4,5-dihydro-1H-pyrazol-5-yl)acetic acid], the EC50 was 3620 nM.
`C[C@@H]1C(C(F)(F)F)=NN(c2ccc(OC3CCN(c4cccnc4)CC3)cc2)[C@H]1CC(=O)O` [Example 75, 2-((4S,5S)-4-Methyl-1-(4-((1-(pyridin-3-yl)piperidin-4-yl)oxy)phenyl)-3-(trifluoromethyl)-4,5-dihydro-1H-pyrazol-5-yl)acetic acid] showed an EC50 of 7680 nM.
